The test system of the test is LG0567-F671-PDC KRAS tumor spheroid viability. The test is described as follows: Anticancer human tumor LG0567-F671-PDC patient-derived lung adenocarcinoma cell line growth inhibition [KRAS2]. To be noted: spheroids with HUVEC and MSC; for pIC50: curve of first compound; for viability, T/C: stronger effect = lower value. The gist of the method: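 Combination screen of spheroid viability in tumor-cell co-cultures with endothelial (HUVEC) and mesenchymal stem cell stroma. Each agent was tested in half-log dilutions, topping at clinical Cmax or at 10 microM without a known Cmax.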

The mark [1] stands for this setting: second compound 0.1 µM, first compound 0.0316 µM.
Where [2] appears, read: second compound 0.1 µM, first compound 0.1 µM.
Setting [3] is: second compound 0.1 µM, first compound 0.316 µM.
[4] abbreviates: second compound 0.1 µM, first compound 1 µM.
Setting [5] is: second compound 0.1 µM, first compound 3.16 µM.
Where [6] appears, read: second compound 0.1 µM, first compound 10 µM.
Setting [7] is: second compound 0.316 µM, first compound 0.0316 µM.
Setting [8] is: second compound 0.316 µM, first compound 0.1 µM.
Where [9] appears, read: second compound 0.316 µM, first compound 0.316 µM.
The mark [10] stands for this setting: second compound 0.316 µM, first compound 1 µM.
Setting [11] is: second compound 0.316 µM, first compound 3.16 µM.
Where [12] appears, read: second compound 0.316 µM, first compound 10 µM.
Where [13] appears, read: second compound 1 µM, first compound 0.0316 µM.
[14] abbreviates: second compound 1 µM, first compound 0.1 µM.
Where [15] appears, read: second compound 1 µM, first compound 0.316 µM.
The mark [16] stands for this setting: second compound 1 µM, first compound 1 µM.
The mark [17] stands for this setting: second compound 1 µM, first compound 3.16 µM.
The mark [18] stands for this setting: second compound 1 µM, first compound 10 µM.
The mark [19] stands for this setting: second compound 3.16 µM, first compound 0.0316 µM.
The mark [20] stands for this setting: second compound 3.16 µM, first compound 0.1 µM.
[21] abbreviates: second compound 3.16 µM, first compound 0.316 µM.
Where [22] appears, read: second compound 3.16 µM, first compound 1 µM.
The mark [23] stands for this setting: second compound 3.16 µM, first compound 3.16 µM.
The mark [24] stands for this setting: second compound 3.16 µM, first compound 10 µM.
[25] abbreviates: second compound 0.0316 µM, first compound 0.0316 µM.
[26] abbreviates: second compound 0.0316 µM, first compound 0.1 µM.

The record followed here is PubChem BioAssay AID1963856 (Molecular Pharmacology Branch, DTP, NCI, 2024).

A word on the pIC50: it is the negative decadic logarithm of the IC50, by convention in mol/L. Broadly, the viability, T/C is the result in the treated group divided by that in the control group, in per cent.

pIC50: −log10 of the molar value.
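Note: drug exposure lasted seven days after spheroids formed for three days.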
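Throughout, for viability, T/C: 100% = DMSO vehicle control viability.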

As for `Cn1nccc1Nc1nccc(-c2cc3c(s2)C(C)(C)N(CCN2CCOCC2)C3=O)n1` + COc1cc2nc(C)nc(NC(C)c3cc(N)cc(C(F)(F)F)c3)c2cc1OC1CCOC1, the negative logarithm of the IC50 (pIC50) by setting is: (second compound 0.1 µM) 6.31; (second compound 0.316 µM) 6.34; (second compound 1 µM) 6.30; (second compound 3.16 µM) 6.28; (second compound 10 µM) 6.22. For the same compound, the viability, T/C under setting [1] was 79.7%; the viability, T/C under setting [2] was 67%; the viability, T/C under setting [3] was 55.3%; the viability, T/C under setting [4] is 43.2%; the viability, T/C under setting [5] is 31.3%; the viability, T/C under setting [6] was 26.6%. Further, the viability, T/C under setting [7] was 80.5%; the viability, T/C under setting [8] is 70.7%; the viability, T/C under setting [9] is 53.9%; the viability, T/C under setting [10] is 42.1%; the viability, T/C under setting [11] is 25.3%; the viability, T/C under setting [12] was 26.1%. The viability, T/C was 68.2% under setting [13]; 68% under setting [14]; 54.8% under setting [15]; 41.5% under setting [16]; 30.3% under setting [17]; 25.5% under setting [18]. Besides, the viability, T/C reads like this: under setting [19], 71.1%; under setting [20], 65.6%; under setting [21], 56.5%; under setting [22], 42.9%; under setting [23], 30.8%; under setting [24], 30.2%. Also, the viability, T/C by setting is: (second compound 10 µM, first compound 0.0316 µM) 74.6%; (second compound 10 µM, first compound 0.1 µM) 72.2%; (second compound 10 µM, first compound 0.316 µM) 55.8%; (second compound 10 µM, first compound 1 µM) 45.4%; (second compound 10 µM, first compound 3.16 µM) 33.4%; (second compound 10 µM, first compound 10 µM) 29.5%.
`CN(C)C/C=C/C(=O)Nc1cc2c(Nc3ccc(F)c(Cl)c3)ncnc2cc1O[C@H]1CCOC1` + C=CC(=O)N1CCN(c2nc(OCC3CCCN3C)nc3c2CCN(c2cccc4cccc(C)c24)C3)CC1CC#N: the pIC50 (second compound 0.0316 µM) is over 9.50; the negative-log IC50 (pIC50) (second compound 0.1 µM) was over 9.50; the pIC50 (second compound 0.316 µM) is over 9.50; the pIC50 (second compound 1 µM) was over 9.50; the pIC50 (second compound 3.16 µM) is over 9.50. The viability, T/C is 39.3% (second compound 0.0316 µM, first compound 0.000316 µM); 40.4% (second compound 0.0316 µM, first compound 0.001 µM); 41.9% (second compound 0.0316 µM, first compound 0.00316 µM); 29.8% (second compound 0.0316 µM, first compound 0.01 µM); 30.4% under setting [25]; 23.5% under setting [26]. The viability, T/C (second compound 0.1 µM, first compound 0.000316 µM) is 38.1%; the viability, T/C (second compound 0.1 µM, first compound 0.001 µM) is 32%; the viability, T/C (second compound 0.1 µM, first compound 0.00316 µM) was 26.5%; the viability, T/C (second compound 0.1 µM, first compound 0.01 µM) was 34.5%; the viability, T/C under setting [1] was 25.8%; the viability, T/C under setting [2] is 18.5%. The viability, T/C reads like this: (second compound 0.316 µM, first compound 0.000316 µM) 24.8%; (second compound 0.316 µM, first compound 0.001 µM) 28.8%; (second compound 0.316 µM, first compound 0.00316 µM) 34.4%; (second compound 0.316 µM, first compound 0.01 µM) 30.4%; under setting [7], 32.1%; under setting [8], 20.1%. For the same compound, the viability, T/C (second compound 1 µM, first compound 0.000316 µM) is 29.3%; the viability, T/C (second compound 1 µM, first compound 0.001 µM) is 32.6%; the viability, T/C (second compound 1 µM, first compound 0.00316 µM) was 25.1%; the viability, T/C (second compound 1 µM, first compound 0.01 µM) is 22.2%; the viability, T/C under setting [13] is 21.2%; the viability, T/C under setting [14] was 19%. Also, the viability, T/C reads like this: (second compound 3.16 µM, first compound 0.000316 µM) 26.5%; (second compound 3.16 µM, first compound 0.001 µM) 10.8%; (second compound 3.16 µM, first compound 0.00316 µM) 15.7%; (second compound 3.16 µM, first compound 0.01 µM) 6.55%; under setting [19], 10.2%; under setting [20], 11.3%.
For `COc1cc(Nc2ncc3c(n2)-c2ccc(Cl)cc2C(c2c(F)cccc2OC)=NC3)ccc1C(=O)O`, the viability, T/C by setting is: (compound 0.0316 µM) 92.8% [middle of 5 runs]; (compound 0.316 µM) 74% [middle of 5 runs]; (compound 3.16 µM) 67.6% [middle of 5 runs]; (compound 10 µM) 48.9% [middle of 5 runs].
In the case of `CC1OCC2(CCN(c3cnc(Sc4ccnc(N)c4Cl)c(N)n3)CC2)C1N` (stereo unspecified) + C=CC(=O)N1CCN(c2nc(OCC3CCCN3C)nc3c2CCN(c2cccc4cccc(C)c24)C3)CC1CC#N, the pIC50 runs as follows: (second compound 0.0316 µM) over 7.50; (second compound 0.1 µM) over 7.50; (second compound 0.316 µM) over 7.50; (second compound 1 µM) over 7.50; (second compound 3.16 µM) over 7.50. Moreover, the viability, T/C under setting [25] was 28.3%; the viability, T/C under setting [26] is 18.1%; the viability, T/C (second compound 0.0316 µM, first compound 0.316 µM) was 16.3%; the viability, T/C (second compound 0.0316 µM, first compound 1 µM) was 11.3%; the viability, T/C (second compound 0.0316 µM, first compound 3.16 µM) is 5.27%; the viability, T/C (second compound 0.0316 µM, first compound 10 µM) was 4.04%. For the same compound, the viability, T/C is, setting by setting: under setting [1], 24.7%; under setting [2], 14.6%; under setting [3], 13.5%; under setting [4], 7.14%; under setting [5], 3.83%; under setting [6], 4.19%. Moreover, the viability, T/C is, setting by setting: under setting [7], 26.3%; under setting [8], 17.8%; under setting [9], 12.3%; under setting [10], 10%; under setting [11], 5.4%; under setting [12], 3.32%. The viability, T/C is, setting by setting: under setting [13], 20.1%; under setting [14], 15.6%; under setting [15], 11.5%; under setting [16], 7.73%; under setting [17], 5.45%; under setting [18], 6.7%. In addition, the viability, T/C reads like this: under setting [19], 29.1%; under setting [20], 21.1%; under setting [21], 17.2%; under setting [22], 8.14%; under setting [23], 5.63%; under setting [24], 4.39%.
As for `CC(C)n1nc(-c2ccc3oc(N)nc3c2)c2c(N)ncnc21`, the viability, T/C by setting is: (compound 0.000316 µM) 98.5% [middle of 5 runs]; (compound 0.001 µM) 89.3% [middle of 5 runs].
